# Source: paper PMC6508865, “Dynamics of thymol dietary supplementation in quail (Coturnix japonica): Linking bioavailability, effects on egg yolk total fatty acids and performance traits” (PLoS ONE, 2019)
# Test system: female Japanese quail (Coturnix japonica)
# Assay: Total fatty acid analysis in egg yolks (GC/MS of FAME)
# Type: in vivo
# Settings: for egg yolk SFA reduction disappeared after post-supplementation / persistence of reduced egg yolk 16:0 concentration after post-supplementation / persistence of reduced egg yolk 18:0 concentration after post-supplementation: 21 days of pS
# Excerpt: All birds continued receiving a basal diet between 85 and 100 days of age and all variables (see below for details) were registered along this period (Pre-supplementation period, Fig 1). […] Once finished the S period, half of the quail were slaughtered for histological analysis (n = 25; Slaughter 1, Fig 1) and the other half were subjected to a pS period of 21 days, during which all females received the BASAL diet (pS, Fig 1). After this period, the remaining 25 animals were also slaughtered for histological analysis (Slaughter 2, Fig 1). In this way, we assessed whether THY induced changes in variables indicative of tissue damage and if so, whether the potential damages could reverse after 3 weeks of supplement withdrawal.
# To assess changes in egg yolk total FA composition, egg physical characteristics, laying rate, body weight, feed intake and general welfare, during the S and pS periods, five sampling points were defined (Sample points, Fig 1): one initial sample point (at 0 days of S); three sample points during the S period (at 7, 14 and 28 days of S); and one sample point at the end of the pS period (21 days of pS). It should be noted that for determinations of THY concentration, eggs and quail droppings were collected offset from the other variables measured by 2 days, thus were collected on days 2, 9, 16, and 26 days of S, and 17 days of pS, respectively.
# Eggs were obtained at each sample point (Sample points, Fig 1) and stored at -20°C until yolk total fatty acids analysis. Lipids were extracted from the yolk following homogenization in a suitable excess of chloroform/methanol (2:1 v/v). The solvents were removed under reduced pressure in a rotary evaporator. Lipids were subjected to alkaline saponification (1 mol/L potassium hydroxide in methanol), and the unsaponifiable matter was extracted with n-hexane. The fatty acid methyl esters (FAMEs) were prepared by transmethylation through treatment with 1 mol/L sulfuric acid in methanol and analyzed by gas chromatography/mass spectrometry (GC/MS). All chemicals used in this study were reagent-grade commercial products. FAMEs were analyzed by gas chromatography on a 60 m fused capillary column with an internal diameter of 0.25 mm (PerkinElmer Elite-WAX Polyethylene Glycol). The analysis was performed on a PerkinElmer Clarus® 600 GC/MS system equipped with a flame ionization detector (Waltham, MA, USA). […] The injection port temperature was 250°C and the detector temperature was 250°C. […] Peak identification was carried out by comparing the known retention times for the fatty acids reported with the temperature program and the chromatographic system used.
# [1] = THY6, 6.25 g of thymol/kg of feed
# [2] = all THY supplemented diets (2, 4, 6.25 g/kg of feed)
compound,measurement,setting,value
"Cc1ccc(C(C)C)c(O)c1 [THY, 2 isopropyl-5-methylphenol]",effect on egg yolk MUFA,"2, 4, 6.25 g of thymol/kg of feed, diet, time of sampling or interaction",No differences
same,supplementation time by which reduced egg yolk 16:0 (palmitic acid) concentration was achieved,"THY2, 2 g of thymol/kg of feed",28 days of S
same,supplementation time by which reduced egg yolk 18:0 (stearic acid) concentration was achieved,"THY2, 2 g of thymol/kg of feed",28 days of S
same,supplementation time required for increasing egg yolk 22:5 (docosapentaenoic acid),"THY2, 2 g of thymol/kg of feed",14 days of S
same,supplementation time required to reduce egg yolk SFA concentration,"THY2, 2 g of thymol/kg of feed",28 days of S
same,egg yolk SFA reduction disappeared after post-supplementation,"THY2, 2 g of thymol/kg of feed",disappeared
same,persistence of reduced egg yolk 16:0 concentration after post-supplementation,"THY2, 2 g of thymol/kg of feed",returned to initial levels
same,persistence of reduced egg yolk 18:0 concentration after post-supplementation,"THY2, 2 g of thymol/kg of feed",continued
same,effect on egg yolk PUFA concentration,"THY2, 2 g of thymol/kg of feed, S period",failed to increase PUFA
same,effect on egg yolk 16:1 (palmitoleic acid),"THY2, 2 g of thymol/kg of feed, by 7 and 14 days of S",transient decrease
same,day of supplementation by which egg yolk polyunsaturated fatty acids increased,"THY4, 4 g of thymol/kg of feed",14 day of supplementation
same,supplementation time by which reduced egg yolk 16:0 (palmitic acid) concentration was achieved,"THY4, 4 g of thymol/kg of feed",14 days of S
same,supplementation time by which reduced egg yolk 18:0 (stearic acid) concentration was achieved,"THY4, 4 g of thymol/kg of feed",14 days of S
same,supplementation time from which egg yolk 18:3 (linolenic acid) concentration was higher,"THY4, 4 g of thymol/kg of feed",14 days of S
same,supplementation time from which egg yolk 20:4 (arachidonic acid) concentration was higher,"THY4, 4 g of thymol/kg of feed",14 days of S
same,supplementation time required for increasing egg yolk 22:5 (docosapentaenoic acid),"THY4, 4 g of thymol/kg of feed",14 days of S
same,supplementation time required to reduce egg yolk SFA concentration,"THY4, 4 g of thymol/kg of feed",14 days of S
same,egg yolk SFA reduction disappeared after post-supplementation,"THY4, 4 g of thymol/kg of feed",not
same,persistence of reduced egg yolk 16:0 concentration after post-supplementation,"THY4, 4 g of thymol/kg of feed",continued
same,persistence of reduced egg yolk 18:0 concentration after post-supplementation,"THY4, 4 g of thymol/kg of feed",continued
same,effect on egg yolk PUFA concentration,"THY4, 4 g of thymol/kg of feed, S period and 21 days of pS",induced PUFA increments that remained enhanced even at 21 days of pS
same,effect on egg yolk 16:1 (palmitoleic acid),"THY4, 4 g of thymol/kg of feed, at 21 days of pS",transient decrease
same,day of supplementation by which egg yolk polyunsaturated fatty acids increased,[1],14 day of supplementation
same,supplementation time by which reduced egg yolk 16:0 (palmitic acid) concentration was achieved,[1],14 days of S
same,supplementation time by which reduced egg yolk 18:0 (stearic acid) concentration was achieved,[1],14 days of S
same,supplementation time from which egg yolk 18:3 (linolenic acid) concentration was higher,[1],14 days of S
same,supplementation time from which egg yolk 20:4 (arachidonic acid) concentration was higher,[1],14 days of S
same,supplementation time required for increasing egg yolk 22:5 (docosapentaenoic acid),[1],7 days of S
same,egg yolk SFA reduction disappeared after post-supplementation,[1],not
same,persistence of reduced egg yolk 16:0 concentration after post-supplementation,[1],continued
same,persistence of reduced egg yolk 18:0 concentration after post-supplementation,[1],returned to initial levels
same,effect on egg yolk PUFA concentration,"THY6, 6.25 g of thymol/kg of feed, S period and 21 days of pS",induced PUFA increments that remained enhanced even at 21 days of pS
same,effect on egg yolk 16:1 (palmitoleic acid),"THY6, 6.25 g of thymol/kg of feed, at 21 days of pS",transient decrease
same,supplementation time required to reduce egg yolk SFA concentration,"THY6, 6.25 g of thymol/kg of feed, reduction of even greater magnitude",14 days of S
same,supplementation time from which egg yolk 20:5 (eicosapentaenoic acid) was increased,[2],7 days of S
same,supplementation time from which egg yolk 22:6 (docosahexaenoic acid) was increased,[2],7 days of S
